Some test systems named below: DU-145; HL-60; SR; NCI-H460; RXF 393; PC-3; CCRF-CEM; U-251; SN12C; SK-OV-3; SNB-19; M14; SK-MEL-2; K562; SK-MEL-28; OVCAR-5; HCC 2998; MCF7; MDA-MB-231; UACC-62.
Common to all, as to experiment: NCI-60 cell line screen, 48 h

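Grown in 96-well plates, cells were treated for 48 hours with each compound at five concentrations. Insufficient inhibition: endpoint recorded as highest concentration tested. GI50 marks 50% less growth.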 Calls of active or inactive are those of the source. Cut-off read from the data, not from the text of the source: active = GI50 up to about 1.1 µM and inactive = higher.

With `COC(=O)c1c[nH]c2c1-c1cc(C(=O)OCc3ccccc3)n(S(=O)(=O)c3ccc(C)cc3)c1C(=O)C2=O`, the GI50 is 0.154 µM (active) in the assay with DU-145; 0.144 µM (active) in the assay with HL-60; 0.262 µM (active) in the assay with SR; 1.24 µM (inactive) in the assay with NCI-H460; 0.214 µM (active) with RXF 393; 0.283 µM (active) with PC-3. Moreover, the GI50 was 0.346 µM (active) in the assay on CCRF-CEM; 0.317 µM (active) in the assay on U-251; 0.165 µM (active) in the assay with SN12C; 1.24 µM (inactive) in the assay on SK-OV-3; 0.193 µM (active) in the assay with SNB-19; 0.155 µM (active) with M14. Further, the GI50 in the assay with SK-MEL-2 was 0.195 µM (active); in the assay on K562 it was 4.99 µM (inactive); in the assay with SK-MEL-28, 0.12 µM (active); in the assay with OVCAR-5 it was 1.56 µM (inactive); in the assay with HCC 2998 it was 0.578 µM (active); in the assay on MCF7 it was 0.184 µM (active). In addition, the GI50 with MDA-MB-231 is 0.0481 µM (active); in the assay on UACC-62, 0.188 µM (active).

As for `COC(=O)c1cc2c(cc1CC(Cc1ccc3c(c1)CCCC3)C(=O)OC)CCCC2` (centres undefined), the GI50 with DU-145 is > 100 µM (inactive); with HL-60, 7.45 µM (inactive); with SR, 97.7 µM (inactive); with NCI-H460, 34 µM (inactive); with RXF 393 it was 25.8 µM (inactive); in the assay with PC-3, 21.7 µM (inactive). The GI50 with CCRF-CEM is 29.7 µM (inactive); in the assay on U-251 it was 41.7 µM (inactive); with SN12C, > 100 µM (inactive); with SK-OV-3 it was 49.5 µM (inactive); in the assay on SNB-19, > 100 µM (inactive); in the assay on M14, 88.3 µM (inactive). Moreover, the GI50 in the assay with SK-MEL-2 was > 100 µM (inactive); in the assay with K562, 40.1 µM (inactive); in the assay with SK-MEL-28 it was 86.1 µM (inactive); with OVCAR-5 it was 68.4 µM (inactive); in the assay with HCC 2998, 20.8 µM (inactive); in the assay on MCF7 it was 40.1 µM (inactive). Further, the GI50 in the assay with MDA-MB-231 is 68.4 µM (inactive); in the assay on UACC-62 it was > 100 µM (inactive).

`CC1CC[C@@]2(OC1)OC1C[C@H]3[C@@H]4CC[C@H]5CC(OC6OC(CO)C(OC7OC(CO)C(O)C(O)C7OC7OC(CO)C(O)C(O)C7O)C(O)C6O)CCC5(C)[C@H]4CCC3(C)C1[C@@H]2C` (some centres undefined): the GI50 with DU-145 was 0.975 µM (active); in the assay with HL-60, 4.97 µM (inactive); in the assay on SR it was 1.81 µM (inactive); with NCI-H460, 3.08 µM (inactive); with RXF 393 it was 1.05 µM (active); in the assay on PC-3, 0.838 µM (active). Further, the GI50 in the assay on CCRF-CEM is 1.35 µM (inactive); with U-251, 1.1 µM (active); in the assay with SN12C, 2.01 µM (inactive); in the assay with SK-OV-3, 1.57 µM (inactive); in the assay with SNB-19, 3.37 µM (inactive); with M14, 3.34 µM (inactive). Further, the GI50 in the assay on SK-MEL-2 is 2.38 µM (inactive); with K562, 2.21 µM (inactive); in the assay with SK-MEL-28 it was 2.12 µM (inactive); in the assay on OVCAR-5 it was 2.25 µM (inactive); with HCC 2998 it was 1.04 µM (active); in the assay on MCF7, 1.01 µM (active). Besides, the GI50 in the assay with MDA-MB-231 is 0.929 µM (active); in the assay with UACC-62, 8.95 µM (inactive).

As for `O=C1NC(=O)C(CCC(=O)c2cccc3ccccc23)C(=O)N1`, the GI50 in the assay on DU-145 is > 100 µM (inactive); in the assay with HL-60 it was > 100 µM (inactive); in the assay on SR, 85.3 µM (inactive); with NCI-H460 it was > 100 µM (inactive); in the assay with RXF 393 it was > 100 µM (inactive); with PC-3 it was > 100 µM (inactive). For the same compound, the GI50 with CCRF-CEM was > 10 µM (inactive); in the assay on U-251, > 100 µM (inactive); in the assay on SN12C it was > 100 µM (inactive); in the assay on SK-OV-3, > 100 µM (inactive); with SNB-19, > 100 µM (inactive); in the assay with M14 it was > 100 µM (inactive). Also, the GI50 with SK-MEL-2, with K562, in the assay with SK-MEL-28, in the assay with OVCAR-5, in the assay on HCC 2998 and in the assay on MCF7 was > 100 µM (inactive) in each case. Also, the GI50 in the assay with MDA-MB-231 and in the assay on UACC-62 was > 100 µM (inactive) throughout.

Regarding `COC1/C=C/C(C)C(C(C)C(OC)C(C)CCC(=O)C(C)C(C/C=C/N(C)C=O)OC)OC(=O)C=CC2OC2(C)CC(OC)C(OC)C2=CC(=O)O[C@@H](C(C)C(OC)CC(OC)/C=C/C(C)C(O)C1)[C@H]2O` (some centres undefined), the GI50 in the assay with DU-145 is 0.00938 µM (active); with HL-60, 0.0109 µM (active); with SR, 0.012 µM (active); in the assay with NCI-H460, 0.00607 µM (active); with RXF 393 it was 0.0139 µM (active); in the assay on PC-3, 0.00609 µM (active). Besides, the GI50 in the assay with CCRF-CEM was 0.00935 µM (active); in the assay with U-251, 0.0146 µM (active); in the assay with SN12C, 0.00593 µM (active); in the assay with SK-OV-3, 0.0205 µM (active); in the assay with SNB-19, 0.0121 µM (active); in the assay on M14 it was 0.00333 µM (active). Further, the GI50 is 0.0175 µM (active) in the assay with SK-MEL-2; 0.00277 µM (active) with K562; 0.00869 µM (active) in the assay with SK-MEL-28; 0.0105 µM (active) in the assay with OVCAR-5; 0.00569 µM (active) with HCC 2998; 0.00627 µM (active) with MCF7. The GI50 in the assay with MDA-MB-231 is 0.0032 µM (active); with UACC-62, 0.0201 µM (active).

On to `O=Cc1ccc(-c2ccc(-c3ccc(CO)s3)o2)s1`, for which the GI50 is 11.5 µM (inactive) in the assay on DU-145; 3.85 µM (inactive) with HL-60; 0.239 µM (active) in the assay on SR; 0.101 µM (active) with NCI-H460; 5.74 µM (inactive) in the assay with RXF 393; 28.3 µM (inactive) in the assay on PC-3. The GI50 was 1.58 µM (inactive) in the assay on CCRF-CEM; 1.91 µM (inactive) in the assay on U-251; 17.7 µM (inactive) in the assay on SN12C; 19.7 µM (inactive) in the assay on SK-OV-3; 32 µM (inactive) in the assay on SNB-19; 20.4 µM (inactive) in the assay on M14. The GI50 in the assay on SK-MEL-2 is 35.7 µM (inactive); with K562, 1.43 µM (inactive); in the assay on SK-MEL-28, > 35.9 µM (inactive); with HCC 2998, 3.22 µM (inactive); in the assay with MCF7, 0.348 µM (active); in the assay with MDA-MB-231 it was 22 µM (inactive). In addition, the GI50 in the assay on UACC-62 is 0.151 µM (active).

In the case of `Cc1c2ccccc2cc2nc3ccccc3n12`, the GI50 in the assay with DU-145, in the assay on HL-60, in the assay with SR, in the assay on NCI-H460, with RXF 393 and in the assay with PC-3 was > 10 µM (inactive) each time. Further, the GI50 in the assay with CCRF-CEM, with U-251, with SN12C, in the assay on SK-OV-3, in the assay on SNB-19 and with M14 was > 10 µM (inactive) in each case. Moreover, the GI50 in the assay on SK-MEL-2, in the assay with K562, in the assay on SK-MEL-28, in the assay with OVCAR-5, in the assay with HCC 2998 and in the assay with MCF7 was > 10 µM (inactive) throughout. The GI50 in the assay on MDA-MB-231 and in the assay with UACC-62 was > 10 µM (inactive) each time.

With `CCN(CCN(CC)C(=O)NC)C(=O)NC`, the GI50 with DU-145, in the assay with HL-60, in the assay on SR, in the assay on NCI-H460, in the assay with RXF 393 and in the assay with PC-3 was > 100 µM (inactive) throughout. Besides, the GI50 in the assay with CCRF-CEM, in the assay on U-251, in the assay on SN12C, in the assay with SK-OV-3, with SNB-19 and in the assay with M14 was > 100 µM (inactive) in each case. For the same compound, the GI50 in the assay on SK-MEL-2, in the assay on K562, in the assay with SK-MEL-28, in the assay on OVCAR-5, in the assay on HCC 2998 and in the assay with MCF7 was > 100 µM (inactive) each time. Besides, the GI50 in the assay on MDA-MB-231 and in the assay with UACC-62 was > 100 µM (inactive) throughout.

As to `C=C(C)C1Cc2c(cc3c(c2O)c(=O)c2ccccc2n3C)O1` (centres undefined), the GI50 with DU-145 was > 10 µM (inactive); with HL-60, 2.77 µM (inactive); with SR, 1.16 µM (inactive); with NCI-H460, 3.1 µM (inactive); with RXF 393, 2.75 µM (inactive); in the assay on PC-3, 5.71 µM (inactive). Besides, the GI50 was 0.724 µM (active) in the assay with CCRF-CEM; 3.33 µM (inactive) in the assay on U-251; 2.27 µM (inactive) with SN12C; 4.97 µM (inactive) with SK-OV-3; 2.61 µM (inactive) in the assay on SNB-19; 3 µM (inactive) with M14. The GI50 in the assay with SK-MEL-2 is 5.42 µM (inactive); in the assay on K562 it was 1.79 µM (inactive); in the assay on SK-MEL-28 it was 10.7 µM (inactive); in the assay on OVCAR-5, 13.3 µM (inactive); in the assay on HCC 2998, 12.1 µM (inactive); in the assay on MCF7 it was 2.94 µM (inactive). The GI50 is 2.2 µM (inactive) in the assay with MDA-MB-231 and 2.34 µM (inactive) in the assay with UACC-62.

Regarding `Cc1cc(O)nc2c3c(ccc12)OC(C)(C)C=C3`, the GI50 with DU-145 was 3.58 µM (inactive); with HL-60, 0.43 µM (active); in the assay on SR it was 2.44 µM (inactive); in the assay on NCI-H460 it was 3.95 µM (inactive); in the assay with RXF 393 it was 5.25 µM (inactive); with PC-3, 5.9 µM (inactive). Moreover, the GI50 in the assay on CCRF-CEM is 3.71 µM (inactive); in the assay on U-251, 3.11 µM (inactive); with SN12C it was 5.98 µM (inactive); with SK-OV-3 it was 11.3 µM (inactive); with SNB-19, 4.55 µM (inactive); with M14, 5.53 µM (inactive). Also, the GI50 with SK-MEL-2 was 10.2 µM (inactive); in the assay with K562 it was 4.22 µM (inactive); in the assay on SK-MEL-28, > 23.2 µM (inactive); with OVCAR-5, 9.62 µM (inactive); with HCC 2998, 9.55 µM (inactive); with MCF7, 3.48 µM (inactive). Further, the GI50 with MDA-MB-231 is 5.78 µM (inactive); in the assay on UACC-62, 5.01 µM (inactive).

The values are drawn from ChEMBL document CHEMBL1201862, “PubChem BioAssay data set” (2004).
